# Reference: paper PMC5404848 (Cell Chemical Biology, 2017)
# Assays:
# HCT116 p53^wt cells [1] = experiment: MTT assay (cell viability), 6 days treatment; assay type: cell-based, Human; conditions: for GI50: HCT116^wt, MTT assay
# Method: To test the biological activity of the compounds, we performed MTT (3-(4,5-dimethylthiazol-2-yl)-2,5-diphenyltetrazolium bromide) and lactate dehydrogenase (LDH) release assays. […] To track not only the toxic (lethal) but also growth-inhibitory (GI) effect in the MTT assay, we treated the cells for 6 days.
# (§1) For MTT assay, the cells were seeded on 96-well transparent plates and treated the next day with the compounds or DMSO for 6 days. Thiazolyl Blue Tetrazolium Bromide (MTT, Sigma Aldrich) was added for 60 minutes to a final concentration of […]. The medium was removed and MTT crystals were dissolved in isopropanol supplemented with 40 mM HCl. The absorbance was measured with Infinite 200 microplate reader (Tecan Group Ltd.) at 570 nm with the reference wavelength 650 nm for background subtraction.
# HCT116 p53^wt cells [2] = assay type: cell-based, Human
# Text: […]. To investigate this effect, we analyzed the cell-cycle distribution. Cells treated for 48 hr with LCAHA or DMSO were pulse-labeled with BrdU for 1 hr and stained with fluorescein isothiocyanate (FITC)-anti-bromodeoxyuridine (BrdU) antibody and propidium iodide (PI). […].
# […]. To track the progression through the S phase and G0/G1 arrest precisely, we analyzed FITC-positive and -negative cells separately for cell-cycle distribution using ModFit LT software.
# […]. After that, the cells were either harvested by trypsinization and fixed with 96% ethanol, or cultured for additional 3-9 hours in the absence of BrdU before harvesting and fixation. The cells were stained with PI and FITC-conjugated anti-BrdU antibody (BioLegend, cat. 364104) and analysed with Fortessa flow cytometer (Becton Dickinson). Cell cycle distribution was analysed using ModFit LT Software (Verity Software House).
# Figure S2. PI-BrdU pulse-chase labeling of HCT116 cells for the evaluation of cell cycle progression following LCAHA treatment. […].
# HCT116 p53wt cells were seeded on culture dishes in growth medium containing 3.3% FBS and treated […]
# the end of the treatment half of the medium was collected in a falcon tube, and the other half was supplemented with BrdU in a final concentration of 10 µM. After one hour, the medium containing BrdU was removed and the cells were trypsinized and fixed (time “t0”) or cultured in the medium previously collected in the falcon tube for additional 3, 6 or 9 hours. After that time the cells were trypsinized, fixed and stained with FITC conjugated anti-BrdU antibody and propidium iodide (PI). The cells were analyzed by flow cytometry using BD Fortessa cell analyzer and BD […] software. All cells, as well as FITC positive (BrdU+, top panel) and FITC negative (BrdU-, bottom panel) counts were exported to separate files and analyzed separately using ModFit LT Software. The graphs show mean ± SD values from three independent experiments. The statistical significance was evaluated using one-way ANOVA with Tukey’s […]
# MCF-7 cells [3] = experiment: MTT assay, 6 days; assay type: cell-based, Human
# Method: (§2) In addition a colony-forming assay was performed on cyclin D1-addicted MCF-7 cells and cyclin D1-negative SAOS-2 cells.
# as §1
# SAOS-2 cells = experiment: MTT assay, 6 days; assay type: cell-based, Human
# Method: as §2, §1
# U-2 OS cells [4] = experiment: MTT assay, 6 days; assay type: cell-based, Human
# Method: as §2, §1
# MCF-7 cells [5] = experiment: Western blot analysis of cyclin D1 expression; assay type: cell-based, Human; conditions: 10 μM, 48 hr
# U-2 OS cells [6] = experiment: Western blot analysis of cyclin D1 expression; assay type: cell-based, Human; conditions: 10 μM, 48 hr
# [7] = tested on: CCND1 mRNA in HCT116, MCF-7, and U-2 OS; experiment: RT-PCR of CCND1 mRNA; assay type: cell-based, Human; conditions: 10 μM, 48 hr
# Method: To characterize the mechanism of cyclin D1 downregulation by LCAHA, we first examined the level of CCND1 mRNA. […] In SAOS-2 cells CCND1 mRNA was not detected.
# Total RNA was isolated with Renozol (GenoPlast Biochemicals) according to the manufacturer’s instructions. Five hundred ng of RNA was reverse-transcribed using M-MLV RT (Promega) and oligo-dT primer. RT PCR was performed with the use of GoTaq qPCR Master Mix (Promega) and the following primers: for CCND1 mRNA: […] and […], for GAPDH mRNA: […] and […] ([Yin et al., 2001]). The hybridization step was carried out at 60°C and the program involved 30 amplification cycles. The products were separated on 1% agarose gel and visualized with ChemiDoc MP system.
# HCT116 p53^wt cells [8] = experiment: Cell numbers from pictures of Hoechst-stained cells; assay type: cell-based, Human; conditions: 3 days, DMSO 6452
# Method: The cells were plated on the 96-well white, flat bottom plates (Falcon) and treated with DMSO, LCAHA or Staurosporine. For the detection of caspase activity Caspase-Glo 3/7 Assay System was used (Promega) according to the manufacturer’s instructions. Due to the observed growth-inhibitory properties of LCAHA the results were normalized to cell numbers, calculated from the pictures of Hoechst-stained cells seeded on transparent culture plates and treated identically as the cells seeded for caspase activity assay (mean nuclei number per picture was 6452 for 3 days treatment with DMSO, and 3957, 4229 and 2783 for the cells treated with increasing concentrations of LCAHA).
# HCT116 p53^wt cells [9] = experiment: Western blot analysis of protein expression; assay type: cell-based, Human
# HCT116 cells = experiment: Western blot analysis of USP2a targets Aurora A and cyclin A1; conditions: 5 μM and 20 μM, 48 hr
# Method: Total cell lysates were prepared with RIPA buffer (Sigma Aldrich) containing protease inhibitor cocktail (Sigma Aldrich) alone or with phosphatase inhibitor cocktail (Roche). Following the electrophoresis and transfer, PVDF membranes were blocked with 4% BSA (BioShop) in TBS-N buffer and incubated with primary antibody at 4°C overnight. After four washes, the addition of secondary antibodies and additional four washes, the detection was performed using Clarity Western ECL Substrate (BioRad) and ChemiDoc MP system (BioRad). The densitometry analysis was performed with Image Lab software (BioRad). All measured values, besides cyclin D1 stability experiment, were normalized to GAPDH or α-tubulin expression level.
# [10] = 5 μM, 48 hr, nine hours after BrdU pulse
compound,measurement,setting,value
"C[C@H](CCC(=O)NO)[C@H]1CC[C@H]2[C@@H]3CC[C@@H]4C[C@H](O)CC[C@]4(C)[C@H]3CC[C@]12C [LCAHA, N-(hydroxy)-3-hydroxylithocholanamide]",GI50,HCT116 p53^wt cells [1]; 6 days,870 ± 90 nM
same,GI50,"HCT116 p53^wt cells [1]; Homo sapiens, HCT-116, 144 h, 6 days",< 1000 nM
same,LD50 (concentration killing 50% of cells),"HCT116 p53^wt cells [1]; Homo sapiens, HCT-116, 144 h, read-out: LD50, HCT116^wt, MTT assay, 6 days",> 25 µM
same,growth of cells inhibited,"HCT116 p53^wt cells [1]; concentration range 2–20 μM, MTT, 6 days",about 60%
same,BrdU incorporation (rate of DNA synthesis),HCT116 p53^wt cells [2],dose-dependent decrease in the rate of DNA synthesis
same,BrdU^− cells that left G0/G1 phase and entered the S phase,HCT116 p53^wt cells [2]; [10],20%
same,proportion of BrdU^+ cells in G0/G1 phase,HCT116 p53^wt cells [2]; [10],24%
same,proportion of BrdU^+ cells remaining in the S phase,HCT116 p53^wt cells [2]; [10],56%
same,cell-cycle progression,"HCT116 p53^wt cells [2]; 5 μM, control siRNA-transfected HCT116 cells",blocked the cell-cycle progression
same,G0/G1 arrest,"HCT116 p53^wt cells [2]; 5 or 10 μM, 48 hr","mild, but significant G0/G1 arrest"
same,viability (MTT),MCF-7 cells [3],"biphasic, dose-dependent decrease of viability"
same,viability (MTT),SAOS-2 cells,viability decrease was observed only at high concentrations
same,viability (MTT),U-2 OS cells [4],"biphasic, dose-dependent decrease of viability"
same,cyclin D1 expression,MCF-7 cells [5],significant decrease of cyclin D1 expression
same,cyclin D1 expression,U-2 OS cells [6],significant decrease of cyclin D1 expression
same,level of CCND1 mRNA,[7],did not change
same,mean nuclei number per picture,HCT116 p53^wt cells [8]; first (lowest) of increasing concentrations,3957
same,mean nuclei number per picture,HCT116 p53^wt cells [8]; second of increasing concentrations,4229
same,mean nuclei number per picture,HCT116 p53^wt cells [8]; third (highest) of increasing concentrations,2783
same,phosphorylation of Akt (S473),"HCT116 p53^wt cells [9]; 5 μM, 24–32 hr",increase of the phosphorylation
same,phosphorylation of GSK-3β (S9),"HCT116 p53^wt cells [9]; 5 μM, 24–32 hr",increase of the phosphorylation
same,expression of p27,"HCT116 p53^wt cells [9]; 5 or 20 μM, 48 hr, HCT116 cells (Figures 2A and S3A)",not altered
same,expression of proteins encoded by p53-target genes (MDM2 and p21) and of p53,HCT116 p53^wt cells [9]; 24 or 48 hr,did not induce
same,expression level of Aurora A,HCT116 cells,significant decrease
same,expression level of cyclin A1,HCT116 cells,significant decrease
